{"source": "patent US7181271B2", "about": "“Synergism of photodynamic and electropermeation effect on cell vitality as a novel cytotoxic agent” (Genetronics, Inc., priority 2003, dated 2007)", "key": {"U937 cells": {"tested_on": "U937 cells", "assay": "Cell viability by trypan blue exclusion after electroporation (250 V, 400 F) and 14 min irradiation", "assay_type": "cell-based", "settings": "for Total dead cells for exp. / Dead cells by pulse / Dead cells by light for control: 1 × 10^−5 M agent, 18–22 C; for Total dead cells for exp. / Dead cells by pulse / Dead cells by light for control / Final dead cells: exp/control: U937 cells; for Total dead cells for exp.: pulse 250 V plus 14 min irradiation; for Dead cells by pulse: single pulse 250 V (1.2 kV/cm), 400 F, 11–12 ms, 14 min irradiation; for Dead cells by light for control: unpulsed control, irradiated 14 min; for Final dead cells: exp/control: ratio of total dead cells (pulse + light) to dead cells by light only, 1 × 10^−5 M"}, "[1]": {"settings": "type 1 photoreaction; cited from earlier work"}}, "data": [{"smiles": "COc1cccc2c1C(=O)c1c(O)c3c(c(O)c1C2=O)C[C@@](O)(C(C)=O)C[C@@H]3O[C@H]1C[C@H](N)[C@H](O)[C@H](C)O1", "note": "[DAM, daunomycin]", "values": [{"measurement": "Total dead cells for exp.", "setting": "U937 cells", "value": 87.5, "unit": "%"}, {"measurement": "Dead cells by pulse", "setting": "U937 cells", "value": 63.4, "unit": "%"}, {"measurement": "Dead cells by light for control", "setting": "U937 cells", "value": 17.6, "unit": "%"}, {"measurement": "Final dead cells: exp/control", "setting": "U937 cells", "value": 4.9}, {"measurement": "penetration and dark effect (without irradiation)", "setting": "U937 cells; unpulsed U937 cells, without irradiation", "value": "increases with time"}]}, {"smiles": "C=CC1=C(C)c2cc3[nH]c(cc4nc(cc5[nH]c(cc1n2)c(C)c5CCC(=O)O)C(CCC(=O)O)=C4C)c(C)c3C=C", "note": "[PP, protoporphyrin]", "values": [{"measurement": "Total dead cells for exp.", "setting": "U937 cells", "value": 91.6, "unit": "%"}, {"measurement": "Dead cells by pulse", "setting": "U937 cells", "value": 65.8, "unit": "%"}, {"measurement": "Dead cells by light for control", "setting": "U937 cells", "value": 18.8, "unit": "%"}, {"measurement": "Final dead cells: exp/control", "setting": "U937 cells", "value": 4.9}]}, {"smiles": "CN(C)c1ccc2cc3ccc(=[N+](C)C)cc-3sc2c1.[Cl-]", "note": "[TP, thiopyronin]", "values": [{"measurement": "Total dead cells for exp.", "setting": "U937 cells", "value": 98.6, "unit": "%"}, {"measurement": "Dead cells by pulse", "setting": "U937 cells", "value": 80.3, "unit": "%"}, {"measurement": "Dead cells by light for control", "setting": "U937 cells", "value": 20.1, "unit": "%"}, {"measurement": "Final dead cells: exp/control", "setting": "U937 cells", "value": 4.9}, {"measurement": "rate constant of oxidizing guanosine", "setting": "[1]", "value": "3.8e+06", "unit": "M⁻¹ s⁻¹"}]}]}
